Results as given in US20100075907A1, “NEUROMEDIN U RECEPTOR AGONISTS AND USES THEREOF” (priority 2006, published 2010).
Non-standard residues stand in square brackets, D forms with d. Residues, ends and D or L forms follow the SMILES beside them. *: point of attachment. X1 = CC(C)CCC[C@@H](C)[C@H]1CC[C@H]2[C@@H]3CC=C4C[C@@H](OC(=O)C*)CC[C@]4(C)[C@H]3CC[C@]12C; Succinimide(1-Et,3-yl) = CCN1C(=O)CC(*)C1=O

Assays:
[1] = system: diet-induced obese mice; assay: Feeding study in diet-induced obese mice (food intake, body weight); assay type: in vivo; settings: for % Food intake (FI) reductions Day 1: Day 1, based on vehicle responses; for % Food intake (FI) reductions Day 2: Day 2, based on vehicle responses; for % Food intake (FI) reductions Day 3: Day 3, based on vehicle responses
Source text: NMUR1 knockout (Nmur1−/−) mice were generated using standard homologous recombination techniques. Nmur1 mice were subsequently transferred to Taconic Farms where they were either maintained on a 75% C57BL/6×25% 129S6/SvEv mixed genetic background or backcrossed six generations to C57BL/6. NMUR2 knockout (Nmur2−/−) mice were licensed from Deltagen Inc., San Mateo, Calif. and subsequently transferred to Taconic Farms where they were either maintained on a 75% C57BL/6×25% 129/OlaHsd mixed genetic background or backcrossed for seven generations to C57BL/6. NMUR1 and NMUR2 double knockout (Nmur1&2−/−) mice were generated by crossing N6 Nmur1−/− mice to N7 Nmur2−/− mice. Mice were individually housed in Tecniplast cages in a conventional SPF facility. Mice were initially maintained on a regular chow diet and then early in their life were switched to a high fat diet (D12492: 60% kcal from fat; Research Diets, Inc., New Brunswick, N.J.) with ad libitum access to water in a 12-hour light/12-hour dark cycle.
Ad libitum fed male diet-induced obese mice were weighed and dosed either i.p. or s.c. about 30 minutes prior to the onset of the dark phase of the light cycle and provided with a preweighed aliquot of high fat diet D12492 which was then weighed 2 hours and 18 hours (day 1), 42 hours (day 2), 66 hours (day 3), and 90 hours (day 4) after the onset of the initial dark phase. Mice were weighed at the 18, 42, 66 and 90 hour time points.

[2] = biological target: T1, mouse NMUR1-ATG (Mus musculus, UniProt O55040); assay: 125I-hNMU-25 binding assay, mouse R1-ATG; set-up: expressed in transfected cells; host or cells: HEK-293 FLP-In cells (pcDNA5); settings: for IC50: binding
T1 sequence (O55040 1-428): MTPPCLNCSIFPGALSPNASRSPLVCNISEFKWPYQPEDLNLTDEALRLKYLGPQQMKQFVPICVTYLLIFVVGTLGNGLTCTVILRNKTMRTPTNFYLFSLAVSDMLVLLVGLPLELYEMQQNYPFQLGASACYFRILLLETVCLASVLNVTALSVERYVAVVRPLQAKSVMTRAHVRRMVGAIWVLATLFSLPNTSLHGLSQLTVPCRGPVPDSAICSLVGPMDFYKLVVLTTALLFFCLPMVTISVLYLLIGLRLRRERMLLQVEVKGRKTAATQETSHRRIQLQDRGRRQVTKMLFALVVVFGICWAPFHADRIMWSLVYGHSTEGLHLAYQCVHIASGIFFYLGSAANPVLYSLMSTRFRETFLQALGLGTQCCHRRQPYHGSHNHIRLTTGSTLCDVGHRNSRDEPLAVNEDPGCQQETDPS
Method: (§1) Confluent cell monolayers expressing NMU receptors (the HEK cells described above) were harvested with phosphate buffered saline, collected by centrifugation, and resuspended in membrane buffer (50 mM TrisCl pH 7.4, 5 mM MgCl2, 1× Protease Inhibitor Cocktail, 10 μM phosphoramidon). After the cell pellet was homogenized, the solution was centrifuged at 18,000 rpm for 20 minutes at 4° C. The pellet was resuspended in membrane buffer to yield a final concentration of 0.5-5 μg/μL of membrane and stored at −80° C.
(§2) Experiments were performed in assay buffer (25 mM TrisCl, pH 7.4, 10 mM MgCl2, 2 mM EDTA, 1× Protease Inhibitor Cocktail, 100 μg/mL Bacitricin, 10 μM phosphoramidon) in 200 μL volumes in a 96-well format using 2-5 μg of membrane and 0.1 nM ^125I-hNMU-25 (about 12,000 cpm/well). For non-specific binding, 1 μM hNMU-25 was added. About 5 μL of peptides were added to measure antagonist activity, and the entire reaction was incubated at room temperature with shaking for 80 minutes. The reaction was terminated by rapid filtration through 0.3% poly-ethylenimine presoaked Millipore 96-well filter plates and washed with ice-cold buffer (5 mM TrisCl pH 7.4, 10 mM MgCl2, 2.5 mM EDTA, 0.04% Triton X-100). Plates were air-dried overnight at room temperature and recovered radioactivity was determined by standard scintillation counting. IC50 values were determined using GraphPad Prism software.
(§3) Concentration-response curves and radioligand-binding data were fitted using Prism (GraphPad Software). Results are summarized below in Tables 8 and 9.

[3] = biological target: T2, rat NMUR1-TTG (Rattus norvegicus, UniProt Q9JJI5); assay: 125I-hNMU-25 binding assay, rat R1-TTG; set-up: expressed in transfected cells; host or cells: HEK-293 FLP-In cells (pcDNA5); settings: for IC50: binding
T2 sequence (Q9JJI5 1-425): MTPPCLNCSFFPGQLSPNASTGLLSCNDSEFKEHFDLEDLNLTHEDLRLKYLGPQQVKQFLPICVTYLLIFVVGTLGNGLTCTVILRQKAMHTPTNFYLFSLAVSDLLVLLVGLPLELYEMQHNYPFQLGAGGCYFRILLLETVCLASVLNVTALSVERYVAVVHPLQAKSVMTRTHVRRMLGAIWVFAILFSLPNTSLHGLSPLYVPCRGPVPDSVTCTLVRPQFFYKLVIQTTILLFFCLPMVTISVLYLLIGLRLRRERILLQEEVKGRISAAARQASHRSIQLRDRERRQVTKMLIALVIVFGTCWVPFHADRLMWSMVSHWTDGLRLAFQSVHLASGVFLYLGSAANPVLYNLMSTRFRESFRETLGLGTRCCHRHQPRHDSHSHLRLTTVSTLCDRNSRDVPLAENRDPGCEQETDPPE
Method: as §1, §2, §3

[4] = biological target: T3, Mouse NMUR1-CTG (Mus musculus, UniProt O55040); assay: 125I-hNMU-25 binding assay, mouse R1-CTG; set-up: expressed in transfected cells; host or cells: HEK-293 FLP-In cells (pcDNA5); settings: for IC50: binding
T3 sequence (O55040 1-428): T1 sequence (O55040 1-428)
Method: as §1, §2, §3

[5] = biological target: hNMUR2 (Homo sapiens, UniProt Q9GZQ4); assay: FLIPR calcium mobilization assay, human NMUR2; assay type: cell-based; set-up: expressed in transfected cells; host or cells: FLP-In CHO or HEK-293 FLP-In cells (pcDNA5); HEK-293/aeq17 lines (pcDNA3.1) were also made; settings: functional data, human R2
hNMUR2, sequence (Q9GZQ4 whole entry): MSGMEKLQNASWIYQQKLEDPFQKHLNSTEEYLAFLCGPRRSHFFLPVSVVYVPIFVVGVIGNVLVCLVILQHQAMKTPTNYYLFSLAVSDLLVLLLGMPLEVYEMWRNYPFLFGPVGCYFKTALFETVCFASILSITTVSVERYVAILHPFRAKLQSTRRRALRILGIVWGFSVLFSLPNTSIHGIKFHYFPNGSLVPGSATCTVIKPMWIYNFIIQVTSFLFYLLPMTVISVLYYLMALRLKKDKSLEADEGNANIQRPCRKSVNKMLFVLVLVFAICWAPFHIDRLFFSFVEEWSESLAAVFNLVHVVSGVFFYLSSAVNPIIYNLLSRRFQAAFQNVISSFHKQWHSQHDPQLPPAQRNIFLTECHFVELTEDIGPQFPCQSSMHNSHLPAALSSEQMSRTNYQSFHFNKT

[6] = acute peripheral administration, wild-type mice

H-FRVDEEFQSPFASQSRPYFLFRPRN-NH2 [NMU4]
Body weight (BW) change (in grams) {relative to vehicle} Day 1 ([1]; 3 mg/kg): −0.3 grams
% Food intake (FI) reductions Day 1 ([1]; 3 mg/kg): 12%

Ac-FRVDEEFQSPFASQSRPYFLFRPRN-NH2 [NMU5]
Body weight (BW) change (in grams) {relative to vehicle} Day 1 ([1]; 3 mg/kg): −0.5 grams
% Food intake (FI) reductions Day 1 ([1]; 3 mg/kg): 26%

Ac-FRVDEEFQSPFASQSRGYFLFRPRN-NH2 [NMU2]
Body weight (BW) change (in grams) {relative to vehicle} Day 1 ([1]; 3 mg/kg): −0.7 grams
% Food intake (FI) reductions Day 1 ([1]; 3 mg/kg): 25%

CC(C)C[C@@H](NC(=O)[C@H](Cc1ccccc1)NC(=O)[C@H](Cc1ccc(O)cc1)NC(=O)CNC(=O)[C@H](CCCNC(=N)N)NC(=O)[C@H](CO)NC(=O)[C@H](CCC(N)=O)NC(=O)[C@H](CO)NC(=O)[C@H](C)NC(=O)[C@H](Cc1ccccc1)NC(=O)[C@@H]1CCCN1C(=O)[C@H](CO)NC(=O)[C@H](CCC(N)=O)NC(=O)[C@H](Cc1ccccc1)NC(=O)[C@H](CCC(=O)O)NC(=O)[C@H](CCC(=O)O)NC(=O)[C@H](CC(=O)O)NC(=O)[C@@H](NC(=O)[C@H](CCCNC(=N)N)NC(=O)[C@@H](N)Cc1ccccc1)C(C)C)C(=O)N[C@@H](Cc1c[nH]c2ccccc12)C(=O)N[C@@H](CCCNC(=N)N)C(=O)N1CCC[C@H]1C(=O)N[C@@H](CCCNC(=N)N)C(=O)N[C@@H](CC(N)=O)C(N)=O [Agonist H] (H-FRVDEEFQSPFASQSRGYF[dL]WRPRN-NH2; N-terminus assumed)
% inhibition of NMU-25 binding [2]: 77%
IC50 [2]: 66 nM
% inhibition of NMU-25 binding [3]: 100%
IC50 [3]: 11 nM
% inhibition of NMU-25 binding [4]: 83%
IC50 [4]: 25 nM
IC50 [5]: > 1000 nM
food intake [1, 6]: significantly reduced food intake
food intake ([1]; ip 3.25 mmoles/kg, diet-induced obese Nmur1+/+ and Nmur1−/− mice, about 2 and 18 hours): reduces food intake

CC(=O)N[C@@H](CSCC(=O)O[C@H]1CC[C@@]2(C)C(=CC[C@H]3[C@@H]4CC[C@H]([C@H](C)CCCC(C)C)[C@@]4(C)CC[C@@H]32)C1)C(=O)NCC(=O)N[C@@H](Cc1ccc(O)cc1)C(=O)N[C@@H](Cc1ccccc1)C(=O)N[C@@H](CC(C)C)C(=O)N[C@@H](Cc1ccccc1)C(=O)N[C@@H](CCCNC(=N)N)C(=O)N1CCC[C@H]1C(=O)N[C@@H](CCCNC(=N)N)C(=O)N[C@@H](CC(N)=O)C(N)=O [NMU11] (Ac-C(X1)GYFLFRPRN-NH2)
extension of serum half-life by PEGylation [1]: two days

CCN1C(=O)CC(SC[C@H](NC(C)=O)C(=O)N[C@@H](Cc2ccccc2)C(=O)N[C@@H](CCCNC(=N)N)C(=O)N[C@H](C(=O)N[C@@H](CC(=O)O)C(=O)N[C@@H](CCC(=O)O)C(=O)N[C@@H](CCC(=O)O)C(=O)N[C@@H](Cc2ccccc2)C(=O)N[C@@H](CCC(N)=O)C(=O)N[C@@H](CO)C(=O)N2CCC[C@H]2C(=O)N[C@@H](Cc2ccccc2)C(=O)N[C@@H](C)C(=O)N[C@@H](CO)C(=O)N[C@@H](CCC(N)=O)C(=O)N[C@@H](CO)C(=O)N[C@@H](CCCNC(=N)N)C(=O)NCC(=O)N[C@@H](Cc2ccc(O)cc2)C(=O)N[C@@H](Cc2ccccc2)C(=O)N[C@H](C)C(=O)N[C@@H](Cc2c[nH]c3ccccc23)C(=O)N[C@@H](CCCNC(=N)N)C(=O)N2CCC[C@H]2C(=O)N[C@@H](CCCNC(=N)N)C(=O)N[C@@H](CC(N)=O)C(N)=O)C(C)C)C1=O (some centres unmarked) [NMU13] (Ac-C(Succinimide(1-Et,3-yl))FRVDEEFQSPFASQSRGYF[dA]WRPRN-NH2)
% inhibition of NMU-25 binding [2]: 100%
% inhibition of NMU-25 binding [3]: 100%
% inhibition of NMU-25 binding [4]: 100%
IC50 [5]: > 1000 nM
food intake [1, 6]: significantly reduced food intake

Ac-C2FRVDEEFQSPFASQSRGYFLFRPRN-CONH2 [NMU9] ({Ac-C(PEG 40 kDa)}-FRVDEEFQSPFASQSRGYFLFRPRN-NH2) [C2 = Cys(PEG)240 kDa from Nektar (mPEG2-MAL-40 k)]
extension of serum half-life by PEGylation [1]: three days
Body weight (BW) change (in grams) {relative to vehicle} Day 1 ([1]; 10 mg/kg): −2.0 grams
% Food intake (FI) reductions Day 1 ([1]; 10 mg/kg): 56%
Body weight (BW) change (in grams) {relative to vehicle} Day 2 ([1]; 10 mg/kg): −1.2 grams
% Food intake (FI) reductions Day 2 ([1]; 10 mg/kg): 57%
Body weight (BW) change (in grams) {relative to vehicle} Day 3 ([1]; 10 mg/kg): −0.2 grams
% Food intake (FI) reductions Day 3 ([1]; 10 mg/kg): 18%

H-FRVDEEFQSPFASQSRGYFLFRPRN-NH2 [hNMU-25, reference compound]
IC50 [2]: 0.4 nM
IC50 [3]: 0.2 nM
IC50 [4]: 0.15 nM
IC50 [5]: 0.8 nM
Body weight (BW) change (in grams) {relative to vehicle} Day 1 ([1]; 10 mg/kg): −0.6 grams
% Food intake (FI) reductions Day 1 ([1]; 10 mg/kg): 21%

Ac-C2FQSPFASQSRGYFLFRPRN-CONH2 ({Ac-C(PEG 40 kDa)}-FQSPFASQSRGYFLFRPRN-NH2; not fully specified; printed as Ac-C2FQSPFASQSRGYFLFRPRN-CONH2) [NMU20, C2 = Cys(PEG)240 kDa]
extension of serum half-life by PEGylation [1]: three days
Body weight (BW) change (in grams) {relative to vehicle} Day 1 ([1]; 10 mg/kg): −2.2 grams
% Food intake (FI) reductions Day 1 ([1]; 10 mg/kg): 67%
Body weight (BW) change (in grams) {relative to vehicle} Day 2 ([1]; 10 mg/kg): −1.1 grams
% Food intake (FI) reductions Day 2 ([1]; 10 mg/kg): 65%
Body weight (BW) change (in grams) {relative to vehicle} Day 3 ([1]; 10 mg/kg): +0.3 grams
% Food intake (FI) reductions Day 3 ([1]; 10 mg/kg): 23%
